Results as given in ChEMBL document CHEMBL2331519, “Sesquiterpenes from the rhizomes of Curcuma heyneana” (J Nat Prod, 2013).
pIC50: −log10 of the molar value.

Legend:
[1] = molecular target: T1, Tyrosine-protein phosphatase non-receptor type 1 (Homo sapiens, UniProt P18031); assay: Inhibition of PTP1B (unknown origin) assessed as decrease in p-nitrophenol production from pNPP substrate after 30 mins by HTS7000 bioassay reader analysis
T1 sequence (P18031 whole entry): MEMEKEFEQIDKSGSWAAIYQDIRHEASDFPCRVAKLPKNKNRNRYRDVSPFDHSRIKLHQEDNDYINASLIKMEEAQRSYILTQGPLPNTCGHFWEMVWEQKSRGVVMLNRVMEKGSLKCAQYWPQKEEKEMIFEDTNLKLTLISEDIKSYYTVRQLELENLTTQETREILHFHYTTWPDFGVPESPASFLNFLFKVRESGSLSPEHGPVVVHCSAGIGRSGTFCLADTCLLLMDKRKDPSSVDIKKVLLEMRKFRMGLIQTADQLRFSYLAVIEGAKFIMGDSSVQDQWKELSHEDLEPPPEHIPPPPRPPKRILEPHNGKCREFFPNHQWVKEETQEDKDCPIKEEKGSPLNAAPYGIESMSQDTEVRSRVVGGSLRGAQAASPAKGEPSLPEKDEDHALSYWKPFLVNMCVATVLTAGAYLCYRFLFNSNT

[2] = molecular target: T2, Tyrosine-protein phosphatase non-receptor type 1 (Homo sapiens) (UniProt P18031); assay: Inhibition of PTP1B (unknown origin) assessed as decrease in p-nitrophenol production from pNPP substrate at 25 ug/ml after 30 mins by HTS7000 bioassay reader analysis
T2 sequence (whole entry): T1 sequence (P18031 whole entry)

[3] = molecular target: T3, Tyrosine-protein phosphatase non-receptor type 2 (Homo sapiens) (UniProt P17706); assay: (§1) Inhibition of TCPTP (unknown origin) assessed as decrease in p-nitrophenol production from pNPP substrate after 30 mins by HTS7000 bioassay reader analysis
T3 sequence (whole entry): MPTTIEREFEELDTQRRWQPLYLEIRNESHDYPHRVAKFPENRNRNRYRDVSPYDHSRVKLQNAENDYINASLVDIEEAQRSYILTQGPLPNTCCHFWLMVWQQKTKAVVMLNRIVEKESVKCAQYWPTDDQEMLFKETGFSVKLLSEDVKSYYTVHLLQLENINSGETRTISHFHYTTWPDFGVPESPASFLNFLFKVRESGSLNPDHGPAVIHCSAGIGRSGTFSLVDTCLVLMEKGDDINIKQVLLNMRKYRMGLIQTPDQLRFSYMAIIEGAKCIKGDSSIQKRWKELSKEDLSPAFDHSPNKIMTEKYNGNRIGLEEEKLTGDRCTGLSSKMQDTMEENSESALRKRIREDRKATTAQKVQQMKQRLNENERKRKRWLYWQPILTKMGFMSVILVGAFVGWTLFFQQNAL

[4] = molecular target: T4, Tyrosine-protein phosphatase non-receptor type 2 (Homo sapiens, UniProt P17706); assay: as §1
T4 sequence (P17706 whole entry): T3 sequence (whole entry)

SMILES | pIC50 [1] | inhibition [2] [%] | inhibition [3] | pIC50 [4]
C=C1CC[C@H]2C(C)(C)CCC[C@]2(C)[C@H]1C/C=C(\C=O)CC(=O)O [ZERUMIN A] | 4.98 | 96.7 | Dose-dependent effect | 5.13
CC(C)=C1C[C@H]2[C@@H](CC[C@]2(C)O)C(CO)=CC1=O | – | < 65 | – | –
C=C1C[C@]2(O)O[C@@]3(CC2=C(C)C)[C@@H](C)CC[C@@H]13 | – | < 65 | – | –
C=C(C)[C@@H]1CC[C@@H](C)[C@@]12C=C(C(C)(C)O)C(=O)O2 | – | < 65 | – | –
C=C(C)[C@@H]1CC[C@@]2(C)OC(=O)C(=C(C)C)C[C@@H]12 | – | < 65 | – | –
C=C1CC[C@H]2C(C)(C)CCC[C@]2(C)[C@H]1/C=C/C(C)=O | 4.83 | 88.8 | Dose-dependent effect | 5.03
CC1=C[C@@]2(O)O[C@@]3(C/C2=C(/C)CO)[C@@H](C)CC[C@@H]13 | – | < 65 | – | –
CC1=CC(=O)C(=C(C)C)C[C@H]2[C@H]1CC[C@]2(C)O [PROCURCUMENOL] | 4.34 | 69.3 | Dose-dependent effect | 4.57
C=C(C)[C@@H]1CC[C@@]2(C)[C@H](O)CC[C@@](C)(O)[C@@H]2C1 | – | < 65 | – | –
C=C(C)[C@@H]1CC[C@]2(C)OC(=O)C(=C(C)C)C[C@@H]12 | – | < 65 | – | –
CC(C)=C1C[C@@H](O)[C@@](C)(O)CC[C@H](O)/C(C)=C\C1=O [HEYNEANONE A] | 4.37 | 77.5 | Dose-dependent effect | 4.21
CC(C)=C1C[C@H]2[C@@H](CC[C@@]2(C)O)[C@@](C)(O)CC1=O | 4.45 | 86 | Dose-dependent effect | 4.80
C=C(C)[C@@H]1CC[C@H](C)[C@@]12C=C(C(C)(C)O)C(=O)O2 | – | < 65 | – | –
CC1=CC(=O)C(=C(C)C)C[C@@H]2[C@@](C)(O)CC[C@]12O [AERUGIDIOL] | 4.45 | 87.5 | Dose-dependent effect | 4.34
CC(C)=C1C[C@@H](O)[C@](C)(O)CC[C@H](O)/C(C)=C\C1=O | – | < 65 | – | –
CCCCCCCCCCCCCCCC(=O)C1=C(O)[C@@H](CO)OC1=O | 5.25 | 99.1 | – | 5.29
C=C(C)[C@@H]1CC[C@](C)(O)[C@H]2CC[C@](C)(O)[C@H]2C1 | – | < 65 | – | –
CC(C)=C1C[C@@H](O)[C@@](C)(O)CC[C@@H](O)/C(C)=C\C1=O [HEYNEANONES C] | 4.45 | 86.2 | Dose-dependent effect | 4.44
CC(C)=C1C[C@H]2[C@H](CC[C@]2(C)O)[C@@](C)(O)CC1=O | – | < 65 | – | –
CC1=CC(=O)[C@@]2(C[C@]3(O)[C@@H](C)CC[C@@H]13)OC2(C)C | – | < 65 | – | –
C=C(C)[C@H]1CC[C@@](C)(O)[C@H]2CC[C@](C)(O)[C@H]2C1 | – | < 65 | – | –
C/C1=C/C(=O)/C(C(C)(C)O)=C\C=C(\C)C(=O)CC1 | – | < 65 | – | –
C=C(C)[C@H]1CC[C@H](C)[C@]12CC(=C(C)C)C(=O)O2 | – | < 65 | – | –
C[C@H]1[C@H](C)CC[C@]2(C(=O)O)CC[C@]3(C)C(=CC[C@@H]4[C@@]5(C)CC[C@H](O)C(C)(C)[C@@H]5CC[C@]43C)[C@H]12 [URSOLIC ACID] | – | 96.7 | – | 5.62
C=C(C)[C@@H]1CC[C@H](C)[C@]12CC(=C(C)C)C(=O)O2 | – | < 65 | – | –
CC(C)=C1C[C@H]2[C@@H](CC[C@]2(C)O)[C@](C)(O)CC1=O | – | < 65 | – | –
